Structures are written as SMILES.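 Results reflect a 48-hour exposure of cells in 96-well plates to compound at five concentrations. GI50 is the concentration that inhibits growth by half. The concentration for full growth arrest is given as TGI.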

We go through 14 molecules from PubChem BioAssay (NCI).

Common to all, as to assay: NCI tumour cell line growth inhibition, 48 h
The test system of assay [1] is OVCAR-5 ovarian.
Assay [2] concerns KM12 colon.
The subject of assay [3] is A498 renal.
For assay [4], the system named is SNB-75 CNS.
For assay [5], the system named is A549 NSCLC.
Assay [6] deals with PC-3 prostate.
Assay [7] relates to NCI-H226 lung.
For assay [8], the system named is HCT-116 colon.
Assay [9] relates to HL-60(TB) leukemia.

For the molecule `CC(=O)Nc1ccc2c3c(cc(O)c2c1)N(C(=O)CCCCCCC(=O)N1CC(CCl)c2c1cc(O)c1cc(NC(C)=O)ccc21)CC3CCl` (stereo not given), the TGI in [1] was 0.243 µM; in [2] it was 12.7 µM; in [3], under 0.01 µM; in assay [4], under 0.01 µM; in [5] it was over 100 µM; in assay [6], 1.13 µM.

With `CC1=C(c2ccccc2)NC(=S)C(C)C(c2ccccc2)=N1` (stereo not given), the TGI in [1], in [2], in assay [3], in assay [7], in assay [8] and in assay [4] was over 100 µM throughout. The figures for the TGI in assay [5] and in [9] were over 100 µM and 35.1 µM, respectively.

For the molecule `CC1=C(O)C(=O)C2C(=O)C1C1Cc3ccccc3C21` (stereo not given), the TGI in [1], in [2], in [3], in [7], in [4] and in assay [5] was over 100 µM in each case. Further, the TGI in [9] was over 100 µM.

In the case of `CC(C)NC(=O)OCc1c(CO)c2c(n1C)-c1ccccc1CC2`, the TGI in [1] was over 100 µM; in assay [2], over 86.8 µM; in assay [3], over 100 µM; in assay [7], over 64.5 µM; in assay [8], 34 µM; in assay [4], over 100 µM. Moreover, the TGI is over 100 µM in assay [5] and over 58.3 µM in assay [9].

`CCOc1ccc(N/C(=C(/C(Cl)=C(/Cl)N2CCCCC2)[N+](=O)[O-])n2nnc3ccccc32)cc1`: the TGI was 32.5 µM in assay [1]; 31.6 µM in assay [2]; 34.9 µM in [3]; 58.7 µM in assay [7]; 37.7 µM in assay [8]; 50.6 µM in assay [4]. Besides, the TGI is 62.9 µM in assay [5] and 26.1 µM in [6].

As for `Cc1c2c(c(O)c3c(O)cccc13)C(=O)C1(O)C(O)=C(C(=O)NCNc3ccc(C(N)=O)cn3)C(=O)C(N(C)C)C1C2` (stereo not given), the TGI in assay [1] was 34.2 µM; in assay [2] it was 15.6 µM; in [3] it was 9.33 µM; in [7], over 100 µM; in assay [8], over 100 µM; in [4], 9.22 µM. In addition, the figures for the TGI in assay [5] and in assay [6] were 23 µM and 30.7 µM, respectively.

As for `COc1ccc(/C(Cl)=C(\C=N/O)c2ccc(OC)c(OC)c2)cc1OC`, the TGI in [1], in [2], in assay [3], in assay [7], in assay [8] and in assay [4] was over 100 µM each time. Besides, the TGI in assay [5] and in assay [9] was over 100 µM throughout.

For `Cc1c(N2CCN(C)CC2)nc2ccc(Cl)cc2c1-c1ccccc1`, the TGI is 28.5 µM in [2]; 25.3 µM in [3]; 40 µM in assay [8]; 36.5 µM in [4]; 36.9 µM in assay [5]; 34.5 µM in assay [9].

Turning to `COc1ccc(-c2cc(=O)c3cc(OC)ccc3[nH]2)cc1`, the TGI in [1], in assay [2], in assay [7], in [8], in [4] and in [5] was over 100 µM throughout. The molecule also gave a TGI in assay [9] of over 100 µM.

With `COc1ccccc1-c1cc(=O)c2cc3c(cc2[nH]1)OCO3`, the TGI in assay [3] is 62.4 µM; in assay [7], 88.8 µM; in assay [8], over 100 µM; in assay [4] it was over 100 µM; in [5] it was over 100 µM; in [9] it was over 100 µM. Besides, the GI50 in assay [7] is 22.8 µM.

On to `COC1C(O)C(n2ncc3c(SC)nc(SC)nc32)OC1C(O)CO` (stereo not given), for which the TGI in [1], in assay [2], in assay [3], in [7], in assay [8] and in [4] was over 100 µM throughout. Besides, the TGI in assay [5] and in assay [9] was over 100 µM each time.

Regarding `CC(C)N=C(N)NC#N`, the TGI in [1], in assay [2], in assay [3], in assay [7], in assay [8] and in assay [4] was over 100 µM throughout. Besides, the TGI in [5] and in assay [9] was over 100 µM throughout.

Consider `COC(=O)c1ccc(N=NN(C)COc2ccc(Br)cc2)cc1`, for which the TGI in [1], in assay [2], in [3], in [7], in [8] and in [4] was over 100 µM each time. In addition, the TGI is over 100 µM in [5] and 59.7 µM in [9].

Take `Cc1cc(/C=C/c2cc[n+](C)c3ccccc23)c(O)c2ncccc12`: the TGI stood at 16 µM in assay [1]; 18.6 µM in assay [2]; 15.5 µM in [3]; 7.14 µM in assay [7]; 7.34 µM in assay [8]; 24 µM in [4]. The TGI in assay [5] was 19.1 µM; in assay [9] it was over 26.9 µM.
